Measured values reported in ChEMBL document CHEMBL5375987, “Structural Fusion of Natural and Synthetic Ligand Features Boosts RXR Agonist Potency” (J Med Chem, 2023).
Values after ≈ are worked out from the molar mass of the structure shown. Blank lines part the entries; values can stand above or below the molecule they belong to.

What was measured:
[1] = target: T1, Retinoic acid receptor RXR-beta (Homo sapiens, UniProt P28702); test: Agonist activity at full length human RXR beta expressed in HEK293T cells measured after 16 hrs by Dual-glo luciferase assay; format: cell-based
T1 sequence (P28702 whole entry): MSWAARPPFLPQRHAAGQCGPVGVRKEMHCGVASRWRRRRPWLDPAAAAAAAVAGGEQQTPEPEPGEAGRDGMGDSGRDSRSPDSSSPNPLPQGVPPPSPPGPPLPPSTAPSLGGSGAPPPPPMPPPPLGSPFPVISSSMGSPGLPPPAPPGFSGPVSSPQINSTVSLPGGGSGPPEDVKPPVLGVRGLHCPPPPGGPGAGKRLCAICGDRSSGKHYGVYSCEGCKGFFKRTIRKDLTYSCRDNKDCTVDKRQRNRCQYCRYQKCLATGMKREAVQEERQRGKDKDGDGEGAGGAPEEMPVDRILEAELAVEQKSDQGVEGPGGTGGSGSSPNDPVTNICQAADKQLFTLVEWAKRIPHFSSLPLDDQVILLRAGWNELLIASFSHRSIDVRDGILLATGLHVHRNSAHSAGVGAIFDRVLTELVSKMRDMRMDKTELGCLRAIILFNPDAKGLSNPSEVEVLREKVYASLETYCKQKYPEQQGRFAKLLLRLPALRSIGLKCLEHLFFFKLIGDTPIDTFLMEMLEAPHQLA

[2] = target: T2, Retinoic acid receptor RXR-alpha (Homo sapiens, UniProt P19793)
T2 sequence (P19793 whole entry): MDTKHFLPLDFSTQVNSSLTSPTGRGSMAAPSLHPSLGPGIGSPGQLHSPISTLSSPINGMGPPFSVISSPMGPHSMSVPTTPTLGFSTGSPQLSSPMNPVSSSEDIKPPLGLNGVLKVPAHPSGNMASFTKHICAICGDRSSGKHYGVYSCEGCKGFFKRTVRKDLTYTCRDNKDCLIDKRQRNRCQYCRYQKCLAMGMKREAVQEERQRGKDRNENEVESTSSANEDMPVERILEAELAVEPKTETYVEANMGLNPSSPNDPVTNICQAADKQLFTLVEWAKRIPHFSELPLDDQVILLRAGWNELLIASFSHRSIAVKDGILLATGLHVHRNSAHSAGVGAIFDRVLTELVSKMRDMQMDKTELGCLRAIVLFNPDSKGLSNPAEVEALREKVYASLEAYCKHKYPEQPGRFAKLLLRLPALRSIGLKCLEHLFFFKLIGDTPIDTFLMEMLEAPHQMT
Description: Agonist activity at full length human RXR alpha expressed in HEK293T cells measured after 16 hrs by Dual-glo luciferase assay

[3] = target: T3, Retinoic acid receptor RXR-gamma (Homo sapiens, UniProt P48443); test: Agonist activity at full length human RXR gamma expressed in HEK293T cells measured after 16 hrs by Dual-glo luciferase assay; format: cell-based
T3 sequence (P48443 whole entry): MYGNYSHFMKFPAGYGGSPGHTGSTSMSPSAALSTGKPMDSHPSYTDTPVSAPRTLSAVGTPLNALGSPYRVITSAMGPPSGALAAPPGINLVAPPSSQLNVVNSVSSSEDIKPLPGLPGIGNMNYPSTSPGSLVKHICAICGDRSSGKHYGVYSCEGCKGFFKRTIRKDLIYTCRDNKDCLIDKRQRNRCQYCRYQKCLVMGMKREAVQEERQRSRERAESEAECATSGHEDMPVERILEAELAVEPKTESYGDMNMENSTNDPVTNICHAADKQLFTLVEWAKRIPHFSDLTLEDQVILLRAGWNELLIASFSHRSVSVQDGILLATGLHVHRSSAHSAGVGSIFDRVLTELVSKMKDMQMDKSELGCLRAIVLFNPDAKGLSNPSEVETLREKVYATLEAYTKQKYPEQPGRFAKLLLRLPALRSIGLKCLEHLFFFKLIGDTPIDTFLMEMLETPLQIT

COS-7 = test: Cytotoxicity against green monkey COS-7 cells assessed as inhibition of cell growth at upto 30 uM measured after 24 hrs CCK-8 method; format: toxicity, cell-based; details: chlorocebus aethiops, cos-7, 24 h
[4] = Microsomal stability in Sprague-Dawley rat liver microsomes assessed as compound remaining at 10 uM measured auto 60 mins in presence of NADPH by HPLC-UV method; format: ADME, Microsome; details: read-out: Stability
[5] = Microsomal stability in Sprague-Dawley rat liver microsomes assessed as half life at 10 uM in presence of NADPH by HPLC-UV method; format: ADME, Microsome
[6] = Thermodynamic aqueous solubility of compound at 24 degreeC measured after 24 hrs by SpectraMax M5e plate reader analysis; format: physicochemical; details: aqueous medium, read-out: Therm_solubility
[7] = target: T4, Nuclear receptor subfamily 1 group I member 3 (Homo sapiens, UniProt Q14994); test: Agonist activity at NR1I3 (unknown origin) at 1 uM
T4 sequence (Q14994 whole entry): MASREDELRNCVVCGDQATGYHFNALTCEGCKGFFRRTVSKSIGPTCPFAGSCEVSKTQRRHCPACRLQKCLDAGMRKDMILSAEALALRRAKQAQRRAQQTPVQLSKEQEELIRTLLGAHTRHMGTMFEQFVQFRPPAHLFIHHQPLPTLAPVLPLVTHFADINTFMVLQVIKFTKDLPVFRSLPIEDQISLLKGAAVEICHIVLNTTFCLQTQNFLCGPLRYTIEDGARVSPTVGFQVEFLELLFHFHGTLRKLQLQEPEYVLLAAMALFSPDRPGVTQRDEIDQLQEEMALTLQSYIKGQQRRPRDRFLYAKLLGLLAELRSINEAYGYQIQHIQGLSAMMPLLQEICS

[8] = target: T4, Nuclear receptor subfamily 1 group I member 3; test: Inverse agonist activity at NR1I3 (unknown origin) at 1 uM
[9] = target: T4, Nuclear receptor subfamily 1 group I member 3; test: Antagonist activity at NR1I3 (unknown origin) at 1 uM

SMILES: O=C(O)/C=C/c1nc(-c2ccccc2)c(-c2cc(C(F)(F)F)cc(C(F)(F)F)c2)o1
EC50 [3]: 0.057 µM

SMILES: O=C(O)[C@@H]1C[C@H]1c1nc(-c2ccccc2)c(-c2cc(C(F)(F)F)cc(C(F)(F)F)c2)o1 (racemic)
Activity (COS-7): Non-Toxic | remaining at 1 h, 10 µM [4]: 79% | half-life at 10 µM [5]: > 2 h | solubility thermodynamic at 24 h [6]: 18.3 µM (≈ 8.08 µg/mL) | Activity [7]: Not Active | Activity [8]: Not Active | Activity [9]: Not Active

SMILES: OC[C@@H]1C[C@H]1c1nc(-c2ccccc2)c(-c2cc(C(F)(F)F)cc(C(F)(F)F)c2)o1 (racemic)
solubility thermodynamic at 24 h [6]: 5.8 µM (≈ 2.48 µg/mL)

Other lines, results leading:

EC50 [1]: 1.9 µM
SMILES: C/C(C(=O)O)=C(/C)c1nc(-c2ccccc2)c(-c2ccccc2)o1

EC50 [1]: 7.4 µM
SMILES: C/C(=C\C(=O)O)c1nc(-c2ccccc2)c(-c2ccccc2)o1

EC50 [1]: 13.1 µM | EC50 [2]: 13 µM
SMILES: O=C(O)/C=C/c1nc(-c2ccccc2)c(-c2ccccc2)o1
